Key:
Human Calpain 1/NS1 = target: T1, Human Calpain 1/NS1 (Homo sapiens, UniProt P07384); assay: Biochemical inhibition of calpain 1, continuous fluorescence (FRET substrate) assay; conditions: mean; read-out: Human Calpain 1/NS1 IC50 (nM)_MEAN
T1 sequence (P07384 1-714): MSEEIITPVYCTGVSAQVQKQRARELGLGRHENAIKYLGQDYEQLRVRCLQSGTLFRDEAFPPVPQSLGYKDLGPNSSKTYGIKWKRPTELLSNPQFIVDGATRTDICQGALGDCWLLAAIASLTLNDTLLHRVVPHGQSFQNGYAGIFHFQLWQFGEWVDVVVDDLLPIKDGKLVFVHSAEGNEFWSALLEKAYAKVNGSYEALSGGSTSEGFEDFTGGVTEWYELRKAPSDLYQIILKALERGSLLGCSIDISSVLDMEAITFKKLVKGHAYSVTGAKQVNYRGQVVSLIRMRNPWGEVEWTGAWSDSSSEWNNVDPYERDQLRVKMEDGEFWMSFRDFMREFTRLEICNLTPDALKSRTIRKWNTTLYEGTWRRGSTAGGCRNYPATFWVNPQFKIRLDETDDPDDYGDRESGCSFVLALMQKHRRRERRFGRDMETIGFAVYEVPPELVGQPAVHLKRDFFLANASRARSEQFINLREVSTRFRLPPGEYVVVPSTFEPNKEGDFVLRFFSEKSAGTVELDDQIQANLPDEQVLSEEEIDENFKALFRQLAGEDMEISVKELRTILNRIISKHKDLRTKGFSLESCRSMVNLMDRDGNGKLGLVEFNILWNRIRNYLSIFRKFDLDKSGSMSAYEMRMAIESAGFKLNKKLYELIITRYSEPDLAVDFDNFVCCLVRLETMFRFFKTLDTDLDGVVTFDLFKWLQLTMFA
T1 sequence (P04632 1-268 partner): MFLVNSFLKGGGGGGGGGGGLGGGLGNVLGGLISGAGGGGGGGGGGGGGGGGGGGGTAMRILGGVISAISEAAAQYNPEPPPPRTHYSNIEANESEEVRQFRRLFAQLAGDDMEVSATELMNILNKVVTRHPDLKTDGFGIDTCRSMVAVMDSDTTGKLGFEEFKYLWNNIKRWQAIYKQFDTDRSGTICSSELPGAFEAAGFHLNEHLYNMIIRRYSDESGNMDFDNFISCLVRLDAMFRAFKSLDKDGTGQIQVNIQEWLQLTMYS
Method: (§1) Calpain 1, 2, and 9 activity and inhibition thereof are assessed by means of a continuous fluorescence assay. The SensoLyte 520 Calpain substrate (Anaspec Inc) is optimized for detecting calpain activity. This substrate contains a novel internally quenched 5-FAM/QXL™ 520 FRET pair. Calpains 1, 2, and 9 cleave the FRET substrate into two separate fragments resulting in an increase of 5-FAM fluorescence that is proportional to calpain activity.
(§2) Assays are typically setup in black 384-well plates using automated liquid handling as follows. Calpain assay base buffer typically contains 50 mM Tris, pH 7.5, 100 mM NaCl and 1 mM DTT. Inhibitors are serially diluted in DMSO and used to setup 2× mixtures with calpains in the aforementioned buffer. After incubation at ambient temperature (25 C), the reaction is initiated by adding a 2× mix of the fluorescent peptide substrate and CaCl2 (required for in-situ calpain activation) in the same buffer. Reaction progress curve data are typically collected for 10 min using excitation/emission wavelengths of 490 nm/520 nm on SpectraMax i3x or the FLIPR-Tetra plate readers (Molecular Devices Inc). Reaction rates were calculated from progress curve slopes typically over 1-5 min. Dose response curves (rate vs. log inhibitor concentration) were typically fit to a 4-parameter logistic function to extract IC50 values.

Human Calpain 2/NS1 = target: T2, Human Calpain 2/NS1 (Homo sapiens, UniProt P17655); assay: Biochemical inhibition of calpain 2, continuous fluorescence (FRET substrate) assay; conditions: mean; read-out: Human Calpain 2/NS1 1C50 [sic] (nM)_MEAN
T2 sequence (P17655 1-700): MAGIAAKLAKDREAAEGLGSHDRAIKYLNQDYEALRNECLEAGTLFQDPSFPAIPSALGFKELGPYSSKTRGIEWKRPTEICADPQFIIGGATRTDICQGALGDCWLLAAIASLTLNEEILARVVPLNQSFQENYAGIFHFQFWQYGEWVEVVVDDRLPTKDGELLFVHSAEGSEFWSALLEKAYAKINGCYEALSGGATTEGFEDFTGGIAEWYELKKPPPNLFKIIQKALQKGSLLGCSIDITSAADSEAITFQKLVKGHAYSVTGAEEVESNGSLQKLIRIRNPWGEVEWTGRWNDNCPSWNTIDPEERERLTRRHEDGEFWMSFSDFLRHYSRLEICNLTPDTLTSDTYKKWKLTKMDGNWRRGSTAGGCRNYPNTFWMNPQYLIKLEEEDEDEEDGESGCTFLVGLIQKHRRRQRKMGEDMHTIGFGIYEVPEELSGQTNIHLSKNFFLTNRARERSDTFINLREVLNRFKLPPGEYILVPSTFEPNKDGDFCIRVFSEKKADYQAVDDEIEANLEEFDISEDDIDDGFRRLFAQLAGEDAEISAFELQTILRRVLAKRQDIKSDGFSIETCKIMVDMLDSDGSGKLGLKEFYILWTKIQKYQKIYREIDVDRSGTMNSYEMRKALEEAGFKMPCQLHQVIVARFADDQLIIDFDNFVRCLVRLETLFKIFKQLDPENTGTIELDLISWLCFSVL
T2 sequence (P04632 1-268 partner): T1 sequence (P04632 1-268 partner)
Method: as §1, §2

[1] = tested on: calpain activity in SH-SY5Y cells; assay: SH-SY5Y cellular calpain activity, Suc-LLVY-AMC fluorescence assay; type: cell-based; conditions: Suc-LLVY-AMC substrate
Method: Calpain activity in SH-SY5Y cells and inhibition thereof were assessed by means of a homogeneous, fluorescence assay that uses the cell-permeable and pro-fluorescent calpain substrate Suc-LLVY-AMC (Sigma-Aldrich Inc). Upon intracellular calpain cleavage of Suc-LLVY-AMC, fluorescent amino-methyl-coumarin (AMC) is released into the media resulting in a continuous increase in fluorescence signal that is proportional to intra-cellular calpain activity.
Assays were typically setup by seeding SH-SY5Y cells in black 384-well plates at 40 k/per well in RPMI-1640 containing 1% serum followed by 37 C overnight incubation. Next morning, cells were pre-incubated for 30 min with serially diluted compounds followed by addition of 100 uM of Suc-LLVY-AMC substrate. The continuous increase in AMC fluorescence is monitored using a FLIPR, Tetra plate reader (Molecular Devices Inc) and slopes measured to report calpain activity. Dose response curves (slopes vs. log inhibitor concentration) were typically fit to a 4-parameter logistic function to extract IC50 values.

Human Calpain 9/NS1 = target: T3, Human Calpain 9/NS1 (Homo sapiens, UniProt O14815); assay: Biochemical inhibition of calpain 9, continuous fluorescence (FRET substrate) assay; conditions: mean; read-out: Human Calpain 9/NS1 IC50 (nM)_MEAN
T3 sequence (O14815 1-690): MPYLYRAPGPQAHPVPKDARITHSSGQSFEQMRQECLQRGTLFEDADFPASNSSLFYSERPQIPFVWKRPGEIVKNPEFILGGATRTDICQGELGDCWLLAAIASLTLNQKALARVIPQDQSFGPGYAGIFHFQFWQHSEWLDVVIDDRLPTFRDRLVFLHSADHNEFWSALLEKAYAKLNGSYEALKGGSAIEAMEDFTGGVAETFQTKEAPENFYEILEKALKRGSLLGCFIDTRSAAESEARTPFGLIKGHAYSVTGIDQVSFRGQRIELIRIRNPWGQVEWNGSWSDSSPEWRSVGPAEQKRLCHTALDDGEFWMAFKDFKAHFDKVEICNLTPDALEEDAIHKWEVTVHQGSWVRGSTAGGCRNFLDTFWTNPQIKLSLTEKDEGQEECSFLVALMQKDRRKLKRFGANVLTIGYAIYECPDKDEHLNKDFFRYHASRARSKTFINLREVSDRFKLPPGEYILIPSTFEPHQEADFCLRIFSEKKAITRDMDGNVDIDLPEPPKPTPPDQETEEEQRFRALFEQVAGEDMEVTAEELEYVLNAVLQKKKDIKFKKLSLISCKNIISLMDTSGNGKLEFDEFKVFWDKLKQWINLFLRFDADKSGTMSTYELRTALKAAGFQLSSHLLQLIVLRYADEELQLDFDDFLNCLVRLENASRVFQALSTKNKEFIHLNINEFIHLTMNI
T3 sequence (P04632 1-268 partner): T1 sequence (P04632 1-268 partner)
Method: as §1, §2

[2] = tested on: calpain activity in SH-SY5Y cells (Spectrin); assay: SH-SY5Y Spectrin cellular calpain inhibition; type: cell-based

IC50 (Human Calpain 1/NS1) [nM]	IC50 (Human Calpain 2/NS1) [nM]	IC50 [1] [µM]	IC50 (Human Calpain 9/NS1) [nM]	IC50 [2] [µM]	SMILES
3000 to 10000	> 10000	> 25	> 10000	–	NC(=O)C(=O)C(Cc1ccccc1)NC(=O)n1c2ccccc2c2ccccc21 (stereo not drawn) [Compound 8, N-(4-AMINO-3,4-DIOXO-1-PHENYLBUTAN-2-YL)-9H-CARBAZOLE-9-CARBOXAMIDE]
< 3000	< 3000	> 25	< 3000	–	NC(=O)C(=O)[C@H](Cc1ccccc1)NC(=O)c1c(Cl)cccc1C(F)(F)F [Compound 19, (S)—N-(4-AMINO-3,4-DIOXO-1-PHENYLBUTAN-2-YL)-2-CHLORO-6-(TRIFLUOROMETHYL)BENZAMIDE]
< 3000	< 3000	< 10	< 3000	–	NC(=O)C(=O)[C@H](Cc1ccccc1)NC(=O)c1ccccc1Br [Compound 36, (S)—N-(4-AMINO-3,4-DIOXO-1-PHENYLBUTAN-2-YL)-2-BROMOBENZAMIDE]
< 3000	< 3000	> 25	< 3000	–	NC(=O)C(=O)[C@H](Cc1ccccc1)NC(=O)c1c(Cl)cccc1-c1ccccc1 [Compound 21, (S)—N-(4-AMINO-3,4-DIOXO-1-PHENYLBUTAN-2-YL)-3-CHLORO-[1,1′-BIPHENYL]-2-CARBOXAMIDE]
3000 to 10000	< 3000	–	< 3000	10 to 25	O=CC(Cc1ccccc1)NC(=O)c1c(Cl)cccc1Br (stereo not drawn) [Compound 41, 2-BROMO-6-CHLORO-N-(1-OXO-3-PHENYLPROPAN-2-YL)BENZAMIDE]
> 10000	3000 to 10000	10 to 25	3000 to 10000	–	NC(=O)C(=O)[C@H](Cc1ccccc1)NC(=O)c1ccc(F)cc1 [Compound 4, (S)—N-(4-AMINO-3,4-DIOXO-1-PHENYLBUTAN-2-YL)-4-FLUOROBENZAMIDE]
< 3000	< 3000	< 10	< 3000	–	COc1ccc(Cl)cc1C(=O)N[C@@H](Cc1ccccc1)C(=O)C(N)=O [Compound 17, (S)—N-(4-AMINO-3,4-DIOXO-1-PHENYLBUTAN-2-YL)-5-CHLORO-2-METHOXYBENZAMIDE]
< 3000	> 10000	< 10	> 10000	–	NC(=O)C(=O)[C@H](Cc1ccccc1)NC(=O)c1ccc(-c2ccccc2)cc1 [Compound 23, (S)—N-(4-AMINO-3,4-DIOXO-1-PHENYLBUTAN-2-YL)-[1,1′-BIPHENYL]-4-CARBOXAMIDE]
> 10000	> 10000	> 25	3000 to 10000	–	COc1cccc(OC)c1C(=O)N[C@@H](Cc1ccccc1)C(=O)C(N)=O [Compound 18, (S)—N-(4-AMINO-3,4-DIOXO-1-PHENYLBUTAN-2-YL)-2,6-DIMETHOXYBENZAMIDE]
> 10000	3000 to 10000	10 to 25	> 10000	–	NC(=O)C(=O)C(Cc1ccccc1)NC(=O)C1c2ccccc2-c2ccccc21 (stereo not drawn) [Compound 10, N-(4-AMINO-3,4-DIOXO-1-PHENYLBUTAN-2-YL)-9H-FLUORENE-9-CARBOXAMIDE]
< 3000	< 3000	< 10	< 3000	–	O=C(NC1CC1)C(=O)[C@H](Cc1ccccc1)NC(=O)c1c(Cl)cccc1Cl [Compound 2, (S)-2,6-DICHLORO-N-(4-(CYCLOPROPYLAMINO)-3,4-DIOXO-1-PHENYLBUTAN-2-YL)BENZAMIDE]
< 3000	< 3000	< 10	< 3000	–	Cc1cccc(C(=O)NC(Cc2ccccc2)C(=O)C(N)=O)c1C (stereo not drawn) [Compound 26, N-(4-AMINO-3,4-DIOXO-1-PHENYLBUTAN-2-YL)-2,3-DIMETHYLBENZAMIDE]
< 3000	< 3000	< 10	< 3000	–	NC(=O)C(=O)C(Cc1ccccc1)NC(=O)c1cccc(F)c1 (stereo not drawn) [Compound 25, N-(4-AMINO-3,4-DIOXO-1-PHENYLBUTAN-2-YL)-3-FLUOROBENZAMIDE]
< 3000	3000 to 10000	10 to 25	< 3000	–	NC(=O)C(=O)[C@H](Cc1ccccc1)NC(=O)c1c(C(F)(F)F)cccc1C(F)(F)F [Compound 20, (S)—N-(4-AMINO-3,4-DIOXO-1-PHENYLBUTAN-2-YL)-2,6-BIS(TRIFLUOROMETHYL)BENZAMIDE]

SMILES	IC50 (Human Calpain 1/NS1) [nM]	IC50 (Human Calpain 2/NS1) [nM]	IC50 [1] [µM]	IC50 (Human Calpain 9/NS1) [nM]	IC50 [2] [µM]
NC(=O)C(=O)C(Cc1ccccc1)NC(=O)N1c2ccccc2Oc2ccccc21 (stereo not drawn) [Compound 6, N-(4-AMINO-3,4-DIOXO-1-PHENYLBUTAN-2-YL)-10H-PHENOXAZINE-10-CARBOXAMIDE]	< 3000	< 3000	> 25	> 10000	–

— patent US20210347727A1 (BLADE THERAPEUTICS, INC., priority 2017, published 2021)
